Where a name gives a salt, the structure may show the parent alone. Read-outs that look alike come from different tables or passages of the source.
Experiments:
[1] = target: T1, full length recombinant Pim-2 protein (Homo sapiens, UniProt Q9P1W9); assay: Pim-2 enzyme assay (HTRF, phosphorylation of biotinylated-BAD (S112) peptide); format: biochemical
T1 construct: by full length recombinant Pim-1, Pim-2, or Pim-3 protein; hexahistidine tag followed by a thrombin cleavage site (N); made in house; host or cells: Sf9 (baculovirus) or E. coli (pET28)
T1 sequence (Q9P1W9 whole entry): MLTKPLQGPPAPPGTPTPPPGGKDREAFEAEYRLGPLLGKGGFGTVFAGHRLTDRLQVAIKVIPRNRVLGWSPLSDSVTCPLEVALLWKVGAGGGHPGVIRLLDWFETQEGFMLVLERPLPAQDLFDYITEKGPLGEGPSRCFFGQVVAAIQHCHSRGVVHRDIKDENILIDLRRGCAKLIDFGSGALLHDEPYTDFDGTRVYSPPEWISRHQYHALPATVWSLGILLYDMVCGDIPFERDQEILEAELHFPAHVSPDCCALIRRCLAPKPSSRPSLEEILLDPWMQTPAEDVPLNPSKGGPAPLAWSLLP
Excerpt: (§1) These cDNAs were used as templates in PCR reactions to produce full-length DNA clones of the PIMs. […] PCR products were digested with […] and EcoRI for Pim-1 and BamHI and EcoRI for Pim-2 and ligated into a modified baculovirus transfer vector (pFastBac1) cleaved with BamHI and EcoRI. For bacterial expression, the same cleaved PCR products encoding Pim-1 or Pim-2 were ligated into a modified E. coli expression vector pET28(a) cleaved with BamHI and EcoRI Amino-terminal hexahistidine tags followed by a thrombin cleavage site were previously added to the vectors using standard methods of molecular biology. Recombinant baculoviruses expressing Pim-1 or Pim-2 were made using standard methods (Fastbac manual, Invitrogen, Carlsbad, Calif.). Infection of Sf9 cells was done at an m.o.i. of greater than 5 for 24-48 h. Cells were harvested by centrifugation and frozen at −80 C. For E. coli expression, cells carrying pET28-His6-Th-Pim-1 or pET28-His6-Th-Pim-2 were picked from a single colony and grown o/n in LB media. The o/n culture was used to inoculate a 2 liter flask with 500 mL media. This was grown o/n and used to inoculate 15-20 liters of Terrific Broth in a New Brunswick Scientific fermentor. The E. coli were grown at 37° C. to and OD600>1.6. The temperature was dropped to 18° C. and o/n expression was induced with 0.5 mM IPTG. Cells were harvested by centrifugation and frozen at −80° C.
(§2) This step was repeated 3× and the resin was transferred to a 2.5 cm glass column. Ten column volumes of wash buffer (0.05 M HEPES, pH 8.0, 0.1 M NaCl, 0.01 M 2-mercaptoethanol, 10% (w/v) glycerol) were applied to the resin followed by 10 column volumes of elution buffer (0.05 M HEPES, pH 8.0, 0.25 M NaCl, 0.01 M 2-mercaptoethanol, 10% (w/v) glycerol, 0.1 M imidazole). Fractions were analyzed by SDS-PAGE and those containing the protein of interest were pooled and concentrated. The concentrated protein was applied to an Amersham Superdex 75 (XK 26/60) column equilibrated in 0.025 M Tris-HCl, pH 7.5, 0.1 M NaCl, 0.01 M 2-mercaptoethanol, 10% (w/v) glycerol. […] Fractions containing the monomeric protein of interest were pooled, concentrated to ˜2 mg/mL, and stored at −80° C.
(§3) The phosphorylation of biotinylated-BAD (S112) peptide by full length recombinant Pim-1, Pim-2, or Pim-3 protein was detected with streptavidin:Allophycocyanin (APC) conjugate and a europium (Eu) labeled antibody directed against phosphorylated-BAD (S112). […] The fluorescence is directly proportional to the amount of phosphorylated BAD peptide present in the reaction.
(§4) A reference compound was included on each assay plate in order to validate that plate; on one plate of every assay run, two additional reference compounds were included.
(§5) The final buffer conditions were as follows: 60 mM Hepes, pH 7.0, 0.05% BSA, 2 mM DTT. […] The reaction was stopped by the addition of 3 mM EDTA, and fluorescence was measured by an HTRF® Rubystar microplate reader. For each plate, percent of control (POC) values were calculated for each well. Values for the IC50 IP were estimated using a standard 4-parameter logistic model.

[2] = target: T2, full length recombinant Pim-1 protein (Homo sapiens, UniProt P11309); assay: Pim-1 enzyme assay (HTRF, phosphorylation of biotinylated-BAD (S112) peptide); format: biochemical; details: read-out: Pim_1_IC50
T2 construct: by full length recombinant Pim-1, Pim-2, or Pim-3 protein; hexahistidine tag followed by a thrombin cleavage site (N); made in house; host or cells: Sf9 (baculovirus) or E. coli (pET28)
T2 sequence (P11309 whole entry): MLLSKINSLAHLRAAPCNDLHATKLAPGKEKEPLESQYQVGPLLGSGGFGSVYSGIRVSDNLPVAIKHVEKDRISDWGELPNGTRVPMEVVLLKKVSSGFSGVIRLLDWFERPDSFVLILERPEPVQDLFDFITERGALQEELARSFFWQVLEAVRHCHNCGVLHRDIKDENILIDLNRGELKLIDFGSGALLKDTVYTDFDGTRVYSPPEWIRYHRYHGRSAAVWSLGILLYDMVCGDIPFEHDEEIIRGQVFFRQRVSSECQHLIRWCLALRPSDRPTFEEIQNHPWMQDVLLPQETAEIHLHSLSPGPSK
Excerpt: as §1, §2, §3, §4, §5

Row | Structure (SMILES) | IC50 ([1]; read-out: Pim2_IC50) [µM] | IC50 [2] [nM] | IC50 ([1]; Pim2_IC50 (uM)) [µM]
1 | CC1CCCN(c2cnc(-c3ccc4[nH]cc(-c5cncc(O[C@@H]6CCCNC6)n5)c4c3)cn2)C1 (mixture of isomers) [Example 306] | 0.093 | 23 | 
2 | O[C@@H]1CN(c2cncc(-c3n[nH]c4ccc(-c5c(F)cccc5F)cc34)n2)CC[C@@H]1O (single isomer, unassigned) [Example 249, cis-1-(6-(5-(2,6-difluorophenyl)-1H-indazol-3-yl)-2-pyrazinyl)-3,4-piperidinediol] | 0.269 | 32 | 
3 | O[C@@H]1CN(c2cncc(-c3n[nH]c4ccc(-c5c(F)cccc5F)cc34)n2)CC[C@@H]1O (single isomer, unassigned) [Example 250, cis-1-(6-(5-(2,6-difluorophenyl)-1H-indazol-3-yl)-2-pyrazinyl)-3,4-piperidinediol] | 0.309 | 46 | 
4 | Fc1cccc(F)c1-c1ccc2[nH]nc(-c3cncc(CC4CCCNC4)n3)c2c1 (single isomer, unassigned) [Example 273, 5-(2,6-difluorophenyl)-3-(6-(3-piperidinylmethyl)-2-pyrazinyl)-1H-indazole] | 0.287 | 70 | 
5 | Fc1cccc(F)c1-c1ccc2[nH]nc(-c3cncc(CC4CCCNC4)n3)c2c1 (single isomer, unassigned) [Example 274, 5-(2,6-difluorophenyl)-3-(6-(3-piperidinylmethyl)-2-pyrazinyl)-1H-indazole] | 0.09 | 20 | 
6 | Fc1cccc(F)c1-c1ccc2[nH]nc(-c3cncc(SC4CCCNC4)n3)c2c1 (single isomer, unassigned) [Example 415] | 0.076 | 28 | 
7 | Fc1cccc(F)c1-c1ccc2[nH]nc(-c3cncc(OC4C=CCNC4)n3)c2c1 (single isomer, unassigned) [Example 426] | 0.174 | 105 | 
8 | Fc1cccc(F)c1-c1ccc2[nH]nc(-c3cncc(Oc4cccnc4)n3)c2c1 [Example 246, 5-(2,6-difluorophenyl)-3-(6-(3-pyridinyloxy)-2-pyrazinyl)-1H-indazole] | 0.798 | 551 | 
9 | N#Cc1ccc2[nH]nc(-c3cncc(O[C@H]4CNCCC45CC5)n3)c2c1 [Example 254, 3-(6-((4R)-6-azaspiro[2.5]oct-4-yloxy)-2-pyrazinyl)-1H-indazole-5-carbonitrile] |  | 364 | > 1
10 | COc1cc(-c2c[nH]c3ccc(-c4c(F)cccc4F)cc23)nc(N2CCC(N)CC2)n1 [Example 276, 1-(4-(5-(2,6-difluorophenyl)-1H-indol-3-yl)-6-methoxypyrimidin-2-yl)piperidin-4-amine] | 0.929 | 344 | 
11 | COc1cc(-c2c[nH]c3ccc(-c4c(F)cccc4F)cc23)nc(N[C@@H]2CCCNC2)n1 [Example 278, (R)-4-(5-(2,6-difluorophenyl)-1H-indol-3-yl)-6-methoxy-N-(piperidin-3-yl)pyrimidin-2-amine] | 0.7 | 565 | 
12 | CC(C)Oc1cncc(-c2ccc3[nH]cc(-c4nnc(N5CCC(N)CC5)o4)c3c2)n1 [Example 280, 1-(5-(5-(6-isopropoxypyrazin-2-yl)-1H-indol-3-yl)-1,3,4-oxadiazol-2-yl)piperidin-4-amine] | 0.161 | 22 | 
13 | CC(C)Oc1cncc(-c2ccc3[nH]cc(-c4nn(C(C)C)c(=O)o4)c3c2)n1 [Example 281, 5-(5-(6-isopropoxypyrazin-2-yl)-1H-indol-3-yl)-3-isopropyl-1,3,4-oxadiazol-2(3H)-one] | 0.597 | 70 | 
14 | CN(C)C(=O)c1ccc2[nH]nc(-c3ccnc(N4CCC(N)CC4)n3)c2c1 [Example 284, 3-(2-(4-aminopiperidin-1-yl)pyrimidin-4-yl)-N,N-dimethyl-1H-indazole-5-carboxamide] | > 1 | 839 | 
15 | c1cnc(N2CCOCC2)c(-c2ccc3[nH]cc(-c4cncc(O[C@@H]5CCCNC5)n4)c3c2)c1 [Example 338] |  | 69 | 
16 | CC(C)Oc1cncc(-c2ccc3[nH]cc(-c4nnc(N5CCC[C@@H](N)C5)o4)c3c2)n1 [Example 525] |  | 70 | 

Now from value to compound, other results behind:

Row | IC50 ([1]; read-out: Pim2_IC50) [µM] | IC50 [2] [nM] | Structure (SMILES) | IC50 ([1]; Pim2_IC50 (uM)) [µM]
17 | 0.733 | 158 | CC1CCCCN1c1nc(-c2ccc3[nH]cc(-c4cncc(O[C@@H]5CCCNC5)n4)c3c2)cs1 (mixture of isomers) [Example 303] | 
18 | 0.203 | 30 | CC(C)C1CCNCC1Oc1cncc(-c2n[nH]c3ccc(-c4c(F)cccc4F)cc23)n1 (single isomer, unassigned) [Example 394] | 
19 | 0.076 | 30 | Fc1cccc(F)c1-c1ccc2[nH]nc(-c3cncc(OC4CCNCC45CC5)n3)c2c1 (single isomer, unassigned) [Example 429] | 
20 | 0.407 | 159 | Fc1cccc(F)c1-c1ccc2[nH]cc(-c3cncc(OC4CNCCC45CC5)n3)c2c1 (single isomer, unassigned) [Example 439] | 
21 | 0.196 | 70 | CC1CNCC(Oc2cncc(-c3n[nH]c4ccc(-c5c(F)cccc5F)cc34)n2)C1 (single isomer, unassigned) [Example 468] | 
22 | 0.039 | 4 | c1ccc(Nc2ccc3[nH]nc(-c4cncc(O[C@H]5CNCCC56CC6)n4)c3c2)cc1 [Example 251, 3-(6-((4R)-6-azaspiro[25]oct-4-yloxy)-2-pyrazinyl)-N-phenyl-1H-indazol-5-amine bis(2,2,2-trifluoroacetate)] | 
23 | 0.121 | 70 | Cn1nccc1-c1ccc2[nH]nc(-c3cncc(O[C@H]4CNCCC45CC5)n3)c2c1 [Example 252, 3-(6-((4R)-6-azaspiro[2.5]oct-4-yloxy)-2-pyrazinyl)-5-(1-methyl-1H-pyrazol-5-yl)-1H-indazole] | 
24 | 0.044 | 13 | C#Cc1ccccc1-c1ccc2[nH]nc(-c3cncc(O[C@H]4CNCCC45CC5)n3)c2c1 [Example 266, 3-(6-((4R)-6-azaspiro[25]oct-4-yloxy)-2-pyrazinyl)-5-(2-ethynylphenyl)-1H-indazole bis(2,2,2-trifluoroacetate)] | 
25 | 0.044 | 30 | C=C(Cl)c1ccccc1-c1ccc2[nH]nc(-c3cncc(O[C@H]4CNCCC45CC5)n3)c2c1 [Example 267, 3-(6-((4R)-6-azaspiro[25]oct-4-yloxy)-2-pyrazinyl)-5-(2-(1-chloroethenyl)phenyl)-1H-indazole bis(2,2,2-trifluoroacetate)] | 
26 | 0.146 | 105 | CC(=O)c1ccc2[nH]nc(-c3cncc(O[C@H]4CNCCC45CC5)n3)c2c1 [Example 268, 1-(3-(6-((4R)-6-azaspiro[25]oct-4-yloxy)-2-pyrazinyl)-1H-indazol-5-yl)ethanone 2,2,2-trifluoroacetate] | 
27 | 0.166 | 46 | OCCc1ccc2[nH]nc(-c3cncc(O[C@H]4CNCCC45CC5)n3)c2c1 [Example 270, 2-(3-(6-((4R)-6-azaspiro[25]oct-4-yloxy)-2-pyrazinyl)-1H-indazol-5-yl)ethanol hydrochloride] | 
28 | 0.2 | 159 | CC(CO)c1ccc2c(c1)c(-c1cncc(O[C@H]3CNCCC34CC4)n1)nn2C (stereo partly drawn) [Example 271, 2-(3-(6-((4R)-6-azaspiro[25]oct-4-yloxy)-2-pyrazinyl)-1-methyl-1H-indazol-5-yl)-1-propanol] | 
29 | 0.099 | 9 | c1cc2[nH]nc(-c3cncc(O[C@H]4CNCCC45CC5)n3)c2cc1-c1cncc(C2CC2)n1 [Example 275, 3-(6-((4R)-6-azaspiro[2.5]oct-4-yloxy)-2-pyrazinyl)-5-(6-cyclopropyl-2-pyrazinyl)-1H-indazole] | 

Source: patent publication US9090593B2, “Bicyclic compounds as Pim inhibitors” (AMGEN INC., priority 2010, dated 2015)
